Laboratory results as given in ChEMBL document CHEMBL4190255, “Novel celastrol derivatives with improved selectivity and enhanced antitumour activity: Design, synthesis and biological evaluation” (Eur J Med Chem, 2017).

Tests used:
A549 = experiment: Antiproliferative activity against human A549 cells after 72 hrs by MTT assay; format: functional, cell-based; conditions: A549, 72 h
MIA PaCa-2 = experiment: Antiproliferative activity against human MIAPaCa2 cells after 72 hrs by MTT assay; format: functional, cell-based; conditions: MIA PaCa-2, 72 h
[1] = Selectivity index, ratio of IC50 for human BJ cells to IC50 for human MIAPaCa2 cells; format: toxicity; conditions: BJ cells versus MIAPaCa2 cells, read-out: Ratio IC50
BJ = experiment: Cytotoxicity against human BJ cells assessed as reduction in cell viability after 72 hrs by MTT assay; format: cell-based
[2] = Selectivity index, ratio of IC50 for human BJ cells to IC50 for human A549 cells; format: toxicity; conditions: BJ cells versus A549 cells, read-out: Ratio IC50
[3] = Selectivity index, ratio of IC50 for human BJ cells to IC50 for human SKOV3 cells; format: toxicity; conditions: BJ cells versus SKOV3 cells, read-out: Ratio IC50
SK-BR-3 = experiment: Antiproliferative activity against human SKBR3 cells after 72 hrs by MTT assay; format: functional, cell-based; conditions: SK-BR-3, 72 h

| SMILES | IC50 (A549) [µM] | IC50 (MIA PaCa-2) [µM] | selectivity ratio [1] | IC50 (BJ) [µM] | selectivity ratio [2] | selectivity ratio [3] | IC50 (SK-BR-3) [µM] |
| --- | --- | --- | --- | --- | --- | --- | --- |
| CNC(=O)N[C@]1(C)CC[C@]2(C)CC[C@]3(C)C4=CC(=O)c5c(cc(O)c(O)c5C)[C@]4(C)CC[C@@]3(C)[C@@H]2C1 | > 15 | > 5 | – | – | – | – | – |
| CNC(=O)N[C@]1(C)CC[C@]2(C)CC[C@]3(C)C4=CC(=O)c5c(cc(OC)c(OC)c5C)[C@]4(C)CC[C@@]3(C)[C@@H]2C1 | > 15 | > 5 | – | – | – | – | – |
| CC1=C(O)C(=O)C=C2C1=CC=C1[C@@]2(C)CC[C@@]2(C)[C@@H]3C[C@](C)(C(=O)O)CC[C@]3(C)CC[C@]12C [CELASTROL] | – | – | 5.97 | – | 1.75 | 2.34 | 0.72 |
| CC1=C(O)C(=O)C=C2C1=CC=C1[C@@]2(C)CC[C@@]2(C)[C@@H]3C[C@](C)(NC(=O)NCc4ccc(F)cc4)CC[C@]3(C)CC[C@]12C | 4.34 | 0.56 | – | – | – | – | – |
| CC1=C(O)C(=O)C=C2C1=CC=C1[C@@]2(C)CC[C@@]2(C)[C@@H]3C[C@](C)(NC(=O)Nc4ccccc4N)CC[C@]3(C)CC[C@]12C | 2.99 | 0.56 | – | – | – | – | – |
| CC(=O)Oc1cc2c(c(C)c1OC(C)=O)C(=O)C=C1[C@@]2(C)CC[C@@]2(C)[C@@H]3C[C@](C)(C(=O)O)CC[C@]3(C)CC[C@]12C | > 15 | > 5 | – | – | – | – | – |

Continued by falling IC50 (A549), values first:

| IC50 (A549) [µM] | IC50 (MIA PaCa-2) [µM] | SMILES | selectivity ratio [1] | IC50 (BJ) [µM] | selectivity ratio [2] | selectivity ratio [3] | IC50 (SK-BR-3) [µM] |
| --- | --- | --- | --- | --- | --- | --- | --- |
| 2.45 | 0.45 | CC1=C(O)C(=O)C=C2C1=CC=C1[C@@]2(C)CC[C@@]2(C)[C@@H]3C[C@](C)(NC(=O)NCc4ccc(C)cc4)CC[C@]3(C)CC[C@]12C | – | – | – | – | – |
| 1.45 | 0.41 | CNC(=O)N[C@]1(C)CC[C@]2(C)CC[C@]3(C)C4=CC=C5C(=CC(=O)C(O)=C5C)[C@]4(C)CC[C@@]3(C)[C@@H]2C1 | 4.72 | 1.96 | 1.36 | – | – |
| 1.41 | 0.55 | CCNC(=O)N[C@]1(C)CC[C@]2(C)CC[C@]3(C)C4=CC=C5C(=CC(=O)C(O)=C5C)[C@]4(C)CC[C@@]3(C)[C@@H]2C1 | – | – | – | – | – |
| 1.26 | 0.66 | CCCNC(=O)N[C@]1(C)CC[C@]2(C)CC[C@]3(C)C4=CC=C5C(=CC(=O)C(O)=C5C)[C@]4(C)CC[C@@]3(C)[C@@H]2C1 | – | – | – | – | – |
